Data on 28 molecules can be found in US7378415B2, “Benzoxazine and quinoxaline derivatives and uses thereof” (Roche Palo Alto LLC, priority 2004, dated 2008).

Counter-ions that a name gives are not always drawn.

Series [1] deals with T1, recombinant human 5-HT6 receptor (Homo sapiens, UniProt P50406).
T1 construct: expressed in transfected cells
Put plainly: Radioligand binding, [3H]LSD competition in HEK293 cell membranes. The following applies: [3H]LSD displacement, pH 7.4, 37° C., read-out: pKi for the 5-HT6 receptor (converted). As for the experimental part: (§1) The binding activity of compounds of this invention in vitro was determined as follows. Duplicate determinations of 5-HT6 ligand affinity were made by competing for binding of [^3H]LSD in cell membranes derived from HEK293 cells stably expressing recombinant human 5-HT6 receptor. Duplicate determinations of 5-HT2A ligand affinity were made by competing for binding of [^3H]Ketanserin (3-(2-(4-(4-fluorobenzoyl)piperidinol)ethyl)-2,4(1H,3H)-quinazolinedione) in cell membranes derived from CHO-K1 cells stably expressing recombinant human 5-HT2A receptor.
(§2) Assay tubes containing [^3H] LSD or [^3H]Ketanserin (5 nM), competing ligand, and membrane were incubated in a shaking water bath for 75 min. at 37° C. (for 5-HT6) or 60 min. at 32° C. (for 5-HT2A), filtered onto Packard GF-B plates (pre-soaked with 0.3% PEI) using a Packard 96 well cell harvester and washed 3 times in ice cold 50 mM Tris-HCl. Bound [^3H] LSD or [^3H]Ketanserin were determined as radioactive counts per minute using Packard TopCount.
(§3) Displacement of [^3H]LSD or [^3H]Ketanserin from the binding sites was quantified by fitting concentration-binding data to a 4-parameter logistic equation:
(§4) [formula] where Hill is the Hill slope, [ligand] is the concentration of competing radioligand and IC50 is the concentration of radioligand producing half-maximal specific binding of radioligand. […]

In series [2] the target is T2, recombinant human 5-HT2A receptor (Homo sapiens, UniProt P28223).
T2 construct: expressed in transfected cells
Put plainly: Radioligand binding, [3H]Ketanserin competition in CHO-K1 cell membranes. The following applies: [3H]Ketanserin displacement, pH 7.4, 32° C., read-out: pKi for the 5-HT2A receptor (converted). How it is done:
as §1, §2, §3, §4

T2 sequence (P28223 whole entry): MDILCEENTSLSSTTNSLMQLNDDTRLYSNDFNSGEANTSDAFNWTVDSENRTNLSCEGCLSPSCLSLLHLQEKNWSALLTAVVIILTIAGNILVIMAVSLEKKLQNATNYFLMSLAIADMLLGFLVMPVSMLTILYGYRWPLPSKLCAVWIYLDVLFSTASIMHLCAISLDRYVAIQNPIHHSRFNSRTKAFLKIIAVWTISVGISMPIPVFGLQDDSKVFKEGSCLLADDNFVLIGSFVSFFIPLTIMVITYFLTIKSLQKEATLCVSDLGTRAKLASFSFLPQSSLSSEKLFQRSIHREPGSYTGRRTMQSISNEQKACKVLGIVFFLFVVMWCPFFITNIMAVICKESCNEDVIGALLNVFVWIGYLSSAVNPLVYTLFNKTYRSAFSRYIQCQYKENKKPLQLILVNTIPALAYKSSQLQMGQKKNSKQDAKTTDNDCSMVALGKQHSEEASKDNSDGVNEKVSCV
T1 sequence (P50406 whole entry): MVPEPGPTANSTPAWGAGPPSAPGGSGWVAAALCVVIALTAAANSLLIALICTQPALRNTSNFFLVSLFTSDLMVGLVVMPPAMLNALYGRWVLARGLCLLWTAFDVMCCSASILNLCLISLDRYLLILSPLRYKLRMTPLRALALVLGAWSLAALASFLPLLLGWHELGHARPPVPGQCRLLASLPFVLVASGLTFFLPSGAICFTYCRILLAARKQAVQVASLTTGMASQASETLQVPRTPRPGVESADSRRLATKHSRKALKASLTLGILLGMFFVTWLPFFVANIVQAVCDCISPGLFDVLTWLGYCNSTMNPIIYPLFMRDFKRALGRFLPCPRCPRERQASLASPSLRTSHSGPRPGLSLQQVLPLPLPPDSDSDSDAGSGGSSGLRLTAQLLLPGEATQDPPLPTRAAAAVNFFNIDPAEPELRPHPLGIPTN

As usually defined, the melting point is the temperature of the solid-liquid transition. For `NCCN1C(=O)COc2cc(S(=O)(=O)c3ccccc3)ccc21` (as salt: hydrochloride), the melting point is 206.9 to 209.1 °C.

The molecule `CN(C)CCN1C(=O)COc2cc(S(=O)(=O)c3ccccc3)ccc21` (as salt: HCl) gave a melting point of 232.9 to 235.3 °C.

In turn, `O=C(C1CCNC1)N1CCOc2cc(S(=O)(=O)c3ccccc3)ccc21` (centres unmarked) (as salt: hydrochloride) gave a melting point of 109.2 to 110.5 °C.

Turning to `CNCCC(=O)N1CCOc2ccc(S(=O)(=O)c3ccccc3)cc21` (as salt: hydrochloride), the melting point lay in the range of 208.3 to 214.7 °C.

In turn, `NCCN1CCOc2cc(S(=O)(=O)c3ccccc3)ccc21` (as salt: HCl) registered a melting point of 261 to 265.1 °C.

Turning to `O=C1COc2cc(S(=O)(=O)c3ccccc3)ccc2N1CC1=NCCN1` (as salt: HCl), the melting point fell in the range of 113.7 to 116 °C.

`CN(C)CCCN1C(=O)COc2cc(S(=O)(=O)c3ccccc3)ccc21` (as salt: HCl) showed a melting point of 194 to 196.4 °C.

With `O=S(=O)(c1ccccc1)c1ccc2c(c1)OCCN2CCn1ccnc1`, the melting point lay in the range of 61.5 to 64.4 °C.

`O=S(=O)(c1ccccc1)c1ccc2c(c1)OCCN2C1CCNC1` (centres unmarked) (as salt: hydrochloride): the melting point lay within 122.8 to 127.6 °C.

Consider `O=C(C1CNC1)N1CCOc2cc(S(=O)(=O)c3ccccc3)ccc21` (as salt: hydrochloride), for which the melting point lay in the range of 182 to 186.6 °C.

On to `O=S(=O)(c1ccccc1)c1ccc2c(c1)OCCN2C1CCNCC1` [Compound 22, 7-Benzenesulfonyl-4-piperidin-4-yl-3,4-dihydro-2H-benzo[1,4]oxazine], for which the Ki in series [1] is roughly 0.105 nM; in series [2], roughly 8.13 nM.

Molecule `O=C(CC1=NCCN1)N1CCOc2cc(S(=O)(=O)c3ccccc3)ccc21` registered a melting point of 44 to 47 °C.

With `O=C1COc2ccc(S(=O)(=O)c3ccccc3)cc2N1CC1=NCCN1` (as salt: HCl), the melting point lay within 250 to 252 °C.

For the molecule `NCCN1CCOc2ccc(S(=O)(=O)c3ccccc3)cc21` (as salt: HCl), the melting point lay in the range of 242.9 to 245.9 °C.

Molecule `CNCC(=O)N1CCOc2ccc(S(=O)(=O)c3ccccc3)cc21` (as salt: hydrochloride) returned a melting point of 233 to 235.5 °C.

Regarding `CC1(C)CN(C2CCNCC2)c2ccc(S(=O)(=O)c3ccccc3)cc2O1` (as salt: hydrochloride), the melting point was 284.9 to 296.3 °C.

In the case of `O=S(=O)(c1ccccc1)c1ccc2c(c1)N(CC1=NCCN1)CCO2` (as salt: HCl), the melting point lay within 114 to 116.1 °C.

`CC1(C)CN(c2ccncc2)c2ccc(S(=O)(=O)c3ccccc3)cc2O1` (as salt: hydrochloride) showed a melting point of 112.7 to 120.4 °C.

The molecule `O=C(CC1=NCCN1)N1CCOc2cc(S(=O)(=O)c3ccccc3)ccc21` (as salt: HCl) showed a melting point of 202.3 to 203.6 °C.

In turn, `NCCNC(=O)N1CCOc2ccc(S(=O)(=O)c3ccccc3)cc21` returned a melting point of 172.4 to 181.3 °C.

Regarding `CNCCCN1CCOc2cc(S(=O)(=O)c3ccccc3)ccc21` (as salt: hydrochloride), the melting point lay within 188.3 to 193.2 °C.

Molecule `N=C(N)NC(=O)N1CCOc2cc(S(=O)(=O)c3ccccc3)ccc21` gave a melting point of 61.2 to 67.3 °C.

Molecule `CN(C)CC(=O)N1CCOc2ccc(S(=O)(=O)c3ccccc3)cc21` (as salt: hydrochloride) gave a melting point of 199 to 203 °C.

`O=C(CC1=NCCN1)N1CCOc2ccc(S(=O)(=O)c3ccccc3)cc21` showed a melting point of 114 to 116.1 °C.

Turning to `O=C(C1CCCNC1)N1CCOc2cc(S(=O)(=O)c3ccccc3)ccc21` (centres unmarked) (as salt: hydrochloride), the melting point lay in the range of 130.5 to 136.7 °C.

As for `N=C(N)NC(=O)N1CCOc2cc(S(=O)(=O)c3ccccc3)ccc21` (as salt: hydrochloride), the melting point lay in the range of 148.5 to 151.6 °C.

Consider `CN(C)CCCCN1C(=O)COc2cc(S(=O)(=O)c3ccccc3)ccc21` (as salt: HCl), for which the melting point is 179 to 180 °C.

`NCCNC(=O)N1CCOc2cc(S(=O)(=O)c3ccccc3)ccc21` (as salt: hydrochloride): the melting point was 220.9 to 221.3 °C.
